Experimental data reported in ChEMBL document CHEMBL3507680, “University of Dundee, Gates Library screen for HepG2 cell viability”.

Test: Human HepG2 cell viability assay in 384 well format
Format: toxicity, cell-based
Parameters: dose 125 nL, time 70.5 hour; concentration not given beside the values
Conditions: HepG2 cells, read-out: Inhibition

Structure (SMILES) | cytotoxicity at 70.5 h
Cc1cc(Cl)ccc1-n1ncc(C(=O)NCC2COC(C)(C)O2)c1N (stereo unspecified) | 23.9%
CCOC(=O)C1CCN(C(=O)c2cnn(-c3ccccc3F)c2N)CC1 | -4.94%
Cc1ccc(C)c(-n2ncc(C(=O)N(C)CCc3ccccn3)c2N)c1 | 4.61%
CN1CCC(N(C)C(=O)c2cnn(-c3cc(F)ccc3F)c2N)CC1 | -0.483%
CCOC(=O)CNC(=O)C1OC(c2ccccc2)=NN1C(C)=O (stereo unspecified) | -6.97%
COc1ccc(NC(=O)C2OC(c3cccs3)=NN2C(C)=O)cc1OC (stereo unspecified) | 2.61%
CC(=O)N1N=C(c2ccco2)OC1C(=O)N(CC(C)C)CC(C)C (stereo unspecified) | -1.96%
CCN(CC)CCNC(=O)CCc1c(C)nn(-c2ccc(Cl)cc2)c1C | -7.15%
Cc1nc(-c2ccoc2)n(CC(=O)N(C)CC(C)C)c1C | -4.77%
Cc1cc(CN(C)CCC(O)c2ccccc2)no1 (stereo unspecified) | 1.83%
CN(C)c1cc(N2CCN(c3ccccn3)CC2)ncn1 | 22.1%
CC(=O)c1cc2ncc(C(=O)NC3CC3)cc2[nH]1 | 16%
CC(=O)c1cc2ncc(C(=O)NC3CCCC3)cc2[nH]1 | -3.81%
CCCNC(=O)c1cn(C(C)(C)C)c2ncccc12 | -1.86%
CCOCCCNC(=O)c1cn(C(C)(C)C)c2ncccc12 | 20.9%
CN(C)C(=O)c1cc(-c2ccncc2)[nH]n1 | -4.19%
CNC(=O)c1cc(-c2ccccc2OC)[nH]n1 | -5.34%
CCN(CC)CCNC(=O)CCc1c(C)nn(-c2ccccc2Cl)c1C | 16.4%
CC(C)(Oc1ccc(C(N)=O)cc1)C(=O)N(CCC#N)C1CC1 | -1.36%
CN(CCC#N)C(=O)C(C)(C)Oc1ccc(C(N)=O)cc1 | 20.4%
COc1ccc2[nH]c(C(=O)NCC3(N)CCCC3)cc2c1 | -7.33%
COc1ccc2c(c1)CN(CC1CC1)C(=O)CCN2CC(C)(C)O | 0.185%

Structure (SMILES) | cytotoxicity at 70.5 h
CC(C)(C)CN1Cc2cc3c(cc2NCCC1=O)OCO3 | 23.7%
CCN1Cc2cc(OC)ccc2N(CC(C)(C)O)CCC1=O | -13%
CC1(C)CNC(=O)CN(C(=O)COc2ccccc2)C1 | -14.2%
CCN1CC(COc2ccccc2)Oc2ncccc2S1(=O)=O (stereo unspecified) | -3.66%
CCN1CC(COc2ccc(OC)cc2)Oc2ccncc2S1(=O)=O (stereo unspecified) | -0.442%
CCN1CC(COC(C)(C)C)Oc2ccncc2S1(=O)=O (stereo unspecified) | -4.84%
CC(C)(C)OCC1CN(CC2CC2)S(=O)(=O)c2cnccc2O1 (stereo unspecified) | -4.79%
CCOC(=O)[C@H]1[C@@H](O)C(=O)N(C)C12CCN(C(=O)OC)CC2 | 7.43%
CCOC(=O)[C@@H]1[C@@H](O)C(=O)N(C)C12CCN(C(=O)OC)CC2 | -10.2%
O=C1c2cccnc2OC(CN2CCOCC2)CN1CC1CC1 (stereo unspecified) | -1.18%
O=C1c2cccnc2OC(CN2CCOCC2)CN1C1CCC1 (stereo unspecified) | -4.26%
COCCN1C[C@H]2CCN(C(C)=O)CC[C@H]2S1(=O)=O | 0.94%
Cc1nnc([C@@H]2C[C@H]3CN(C(=O)c4sccc4C)C[C@H]3O2)[nH]1 | -8.24%
CC(C)CN1C[C@H]2CCN(C(=O)C3CCCO3)CC[C@H]2S1(=O)=O (stereo partly specified) | -8.39%
CCN1C[C@H]2CCN(C(=O)C3CCCO3)CC[C@H]2S1(=O)=O (stereo partly specified) | -7.09%
CNC(=O)[C@H]1CC[C@@H]2[C@@H](CCN2C(=O)N(C)C)O1 | -5.62%
CN(C)CCN1CCc2ncc(CN(C)Cc3ccco3)n2CC1 | 30%
Cn1cc(-c2nc(C3CCN(S(C)(=O)=O)CC3)cc3c2ncn3C)cn1 | 23.5%
CCN1CC2(CC1=O)CN(C(C)=O)CCN(S(=O)(=O)CC)C2 (stereo unspecified) | -2.5%
Cn1cc(-c2nc(C3CCN(CC4CC4)CC3)cc3c2ncn3C)cn1 | -1.1%
CN(C)c1ccc2c(c1)CN(C(=O)c1ccnnc1)C2c1cnco1 (stereo unspecified) | -13.8%
c1cc(CN2CCc3c(CN4CCCC4)n[nH]c3C2)ccn1 | 23.4%

Structure (SMILES) | cytotoxicity at 70.5 h
C[C@H]1C[C@@H]2CCN(Cc3nccs3)C[C@H]2O1 | -9.2%
Cc1nnc(C[C@@H]2COC[C@H]3CN(C(=O)c4ccco4)C[C@@H]23)o1 | -9.01%
Cc1nnc(C[C@@H]2COC[C@H]3CN(C(=O)C4=CCCC4)C[C@@H]23)o1 | -13.7%
Cc1cc(C(=O)N2CCCC3(COCCN(c4ccccc4)C3)C2)[nH]n1 (stereo unspecified) | -10.7%
CCN1CC2(CC1=O)CN(C(C)=O)CCN(S(C)(=O)=O)C2 (stereo unspecified) | -13.4%
CC(C)Nc1nc2c(c(NC3CC3)n1)CN(C(=O)c1ccncc1)CC2 | 32.7%
C[C@H]1C[C@H]2CN(C(=O)c3cccc4c3OCCO4)CC[C@H]2O1 | 32.2%
O=C(COC1CCCC1)N1CC[C@H]2OCC[C@@]2(COCC2CC2)C1 | -3.35%
CCOCC1CN(C(=O)[C@H]2CCCO2)Cc2nnn(CC3CC3)c21 (stereo partly specified) | -1.02%
CC(C)N1CCC(c2ccnc3c(C(=O)N4CCCC4)ncn23)CC1 | -3.82%
CCN1C(=O)CC(c2ccccc2)C12CCN(c1ncc(C)cn1)CC2 (stereo unspecified) | -3.7%
CCN(C)C(=O)c1ncn2c(C3CCN(S(C)(=O)=O)CC3)ccnc12 | -5.47%
CCN1C(=O)CC(c2cccnc2)C12CCN(c1ncc(F)cn1)CC2 (stereo unspecified) | 1.09%
O=C(c1ncn2c(C3CCN(CC4CC4)CC3)ccnc12)N1CCCC1 | 0.745%
CC(=O)NCC(=O)N1CCc2nc(C)nc(C)c2CC1 | 5.59%
CCNC(=O)N1CCC2(CC1)CCn1c(-c3ccccc3)cnc12 | -3.37%
Cc1nnc([C@H]2C[C@H]3OCC[C@H]3N(S(=O)(=O)N(C)C)C2)o1 | -3.65%
O=C(Nc1cnccn1)[C@@H]1COC[C@H]2CN(c3ncc(F)cn3)C[C@H]21 | -4.35%
CC1CCN(c2ccc3c(-c4ncc(C(=O)O)s4)noc3c2)CC1 | -5.23%
CCOC1CC2(CCN(c3cnccn3)CC2)c2ccccc21 (stereo unspecified) | -4.37%
Cn1cnc2c1C(C(=O)N1CCOCC1)N(C(=O)c1ccccc1)CC2 (stereo unspecified) | -4.08%
Cc1nc(CN2CCc3nc(N4CCCC4)nc(NC(C)C)c3C2)cs1 | -3.99%

Structure (SMILES) | cytotoxicity at 70.5 h
COC[C@H]1CCC[C@]12CN(S(=O)(=O)c1cccs1)CCO2 | -4.35%
Cc1ccsc1C(=O)N1CCC2(CC(C(=O)N(C)C(C)C)=NO2)C1 (stereo unspecified) | -2.65%
Cc1cccc(C(=O)N2CCC3(CC(C(=O)N(C)C(C)C)=NO3)C2)c1 (stereo unspecified) | -3.14%
COCC(=O)NCc1cc(=O)n2c(n1)CN(Cc1ccoc1)CCC2 | 1.73%
Cc1ccc(N2CCCC3(COCCN(c4cnccn4)C3)C2)nn1 (stereo unspecified) | -0.306%
Cc1nc(COC[C@H]2CC[C@H]3NCC[C@H]3O2)cs1 | -6.2%
NC(=O)N1CCc2cc(C(=O)O)c(-c3ccsc3)nc2CC1 | -6.4%
O=S(=O)(C1CC1)N1Cc2[nH]nc(COCC3CC3)c2C1 | -6.81%
CN(Cc1cccs1)C1CCC[C@@H]2CN(C(N)=O)C[C@H]12 (stereo partly specified) | -10.5%
CCN1CCC2(CC1)C(=O)N(c1ccc(C)nc1)CCN2CC(C)C | -3%
O=C(O)c1c(-c2ccoc2)ncc2c1CCN(C1CCOC1)C2 (stereo unspecified) | -2.3%
Cc1cc(CN2C[C@@H](C)[C@@]3(CCN(CC(=O)N(C)C)C3=O)C2)oc1C | -4.41%
Cn1cc(CN2C[C@H]3CCC[C@@H](CNc4nccn4C)[C@H]3C2)cn1 | -3.76%
Cn1ccnc1NC[C@@H]1CCC[C@@H]2CN(CC3CC3)C[C@@H]21 | -9.55%
O=C(O)c1cc2c(nc1-c1ccsc1)CCN(C(=O)C1CC1)CC2 | -7.32%
CC1CCCCN1C(=O)c1nc2c(n1C(C)C)CCN(C)C2 (stereo unspecified) | -14%
CN(Cc1ccco1)Cc1cnc2n1CCN(S(C)(=O)=O)CC2 | 26.4%
CCc1cnc(N2CC[C@H]3[C@@H]2CCC(=O)N3CC2CCOCC2)nc1 | 20.9%
COCCN1CCC2(CCCN(C(=O)c3cncn3C)C2)CC1 | -3.6%
CN1CCC2(CCN(c3ncc(F)cn3)CC2)C1=O | -1.11%
Cc1cc(C(=O)N2CCC3(CC2)COCCN(c2cccnc2)C3)[nH]n1 | -3.67%
CN(C)C(=O)COC[C@@]12CCC[C@@H]1CN(C1CCC1)C2 | -10.9%

Structure (SMILES) | cytotoxicity at 70.5 h
C[C@@H]1C[C@H]2CN(Cc3nccs3)C[C@H]2O1 | -10.9%
CN(C)C(=O)COC[C@@]12CCC[C@@H]1CNC2 | -13.5%
CS(=O)(=O)N1CCOCC2(CCN(Cc3ccc[nH]3)CC2)C1 | -5.4%
Cc1nc(CN2CCC3(CC2)CC(=O)N(C)c2ccccc23)cs1 | -7.28%
COCCN1CCO[C@H]2CCN(C(=O)c3cccs3)CC[C@@H]21 | 5.33%
Cc1noc([C@H]2C[C@H]3OCC[C@H]3N(C3CCC3)C2)n1 | 24.7%
CN(C)c1nccc(N2CCO[C@H]3CN(Cc4nccn4C)C[C@H]32)n1 | -0.595%
Cc1nc(CN2C(=O)COC3(CCN(CC4CC4)CC3)C2C)cs1 (stereo unspecified) | 2.37%
Cc1cc(C(=O)N2CCC3(CC2)CC(c2cccnc2)C(=O)N3)no1 (stereo unspecified) | 1.95%
CCN(CC)Cc1cn2c(n1)CN(C(=O)Cc1ccsc1)CC2 | -5.15%
Cc1ccc(N2CCCC3(COCCN(c4ncccn4)C3)C2)nn1 (stereo unspecified) | 4.86%
CN1Cc2[nH]nc(COCC3CC3)c2C1 | -11.3%
Cc1ccc(CN2CC[C@@H](NS(C)(=O)=O)[C@@H]2Cc2ccncc2)o1 | -10.7%
CN(C)C(=O)[C@H]1CC[C@@H]2[C@@H](CCN2Cc2ccccn2)O1 | 0.127%
CN(C)C(=O)[C@@H]1CC[C@@H]2[C@@H](CCN2Cc2ccccn2)O1 | -7.99%
c1coc(CN2CCC3(CC2)COCCN(CCN2CCCC2)C3)c1 | -0.522%
c1c[nH]c(CN2CCC3(CC2)COCCN(CCN2CCCC2)C3)c1 | -10.3%
CCCN1CCc2c(C(=O)N(C)Cc3ccccn3)nn(C)c2C1 | -6.22%
